{"source": "patent US20140349340A1", "about": "“MBTH-LIKE PROTEINS IN THE PRODUCTION OF SEMI SYNTHETIC ANTIBIOTICS” (DSM SINOCHEM PHARMACEUTICALS NETHERLANDS B.V., priority 2012, published 2014)", "format_in_all_cases": "biochemical", "key": {"[1]": {"experiment": "PPi release assay, adenylation activity with L-hydroxyphenylglycine", "settings": "for adenylation activity (PPi release assay) / adenylation activity (absorption 360 nm, PPi release assay): substrate L-hydroxyphenylglycine", "description": "(§1) These assays use inorganic pyrophosphatases to convert PPi produced during aminoacyl-AMP formation to orthophosphate (Pi). To measure Pi concentrations some of these assays use molybdate/malachite green reagent for colorimetric detection (McQuade et al. 2008) or, as used in the context of the present invention, a shift in absorbance maximum by conversion of 7-methyl-6-thioguanosine (MESG) by purine nucleoside phosphorylase (Ehmann D. E. et al. (Proc. Natl. Acad. Sci. (2000) 97, 2509-2514) or Daniel & Aldrich (Anal. Biochem. (2010) 404, 56-63)).\n(§2) To determine the adenylation activity of the adenylation domains, the Enzchek® pyrophosphate assay kit (Life Technologies) was used as described by Ehmann D. E. et al. (Proc Nat Acad Science (2000) 97, 2509-2514) with small modifications. The reactions were performed 96 wells UV/Vis transparent plates (BD Falcon). The reaction mixture comprises 50 mM HEPES pH 8.0, 10 mM MgCl2, 5 mM ATP, 75 mM DTT, 0.03 U Inorganic Pyrophosphatase (IP), 1 U Purine Nucleoside Phosphorylase (PNP) and 0.2 mM MESG in a volume of 70 μl. Next 20 μl (around 0.5-2 μM final concentration) of purified A(T) domain, with or without co-purification of the MbtH like helper protein was added and the reaction was pre-incubated for 15 minutes at RT to reduce contaminating Pi. Following the pre-incubation, 10 μl of a 10 mM or 1 mM solution of the appropriate amino acid depending on the performed specificity determination was added to initiate the adenylation reaction and the absorbance at 360 nm was measured using a TECAN I Control spectrophotometer. Absorbance measurements were made every 5 to 10 min over a period of up to 240 min. A reaction with addition of 10 μl MilliQ water instead was used to determine and subtract the background absorbance. As substrates the following amino acids were used: D- or L-phenylalanine, D- or L-hydroxyphenylglycine, D- or L-phenylglycine, L-tryptophan, L-valine, L-cysteine, and L-leucine."}, "[2]": {"experiment": "PPi release assay, adenylation activity with D-phenylglycine", "settings": "for Formed PPi: substrate D-PG 1 mM", "description": "as §1, §2"}, "[3]": {"experiment": "PPi release assay, adenylation activity with D-phenylalanine", "settings": "substrate D-phenylalanine", "description": "as §1, §2"}, "[4]": {"experiment": "PPi release assay, adenylation activity with L-phenylalanine", "settings": "substrate L-phenylalanine", "description": "as §1, §2"}, "[5]": {"experiment": "PPi release assay, adenylation activity with D-hydroxyphenylglycine", "description": "as §1, §2"}, "[6]": {"experiment": "PPi release assay, adenylation activity with L-phenylglycine", "settings": "for Formed PPi: substrate L-PG 1 mM", "description": "as §1, §2"}, "[7]": {"settings": "co-purified with Tcp13, or Tcp17 or VMbtH"}, "[8]": {"settings": "protein alone, without MbtH-like protein"}, "[9]": {"settings": "substrate D-hydroxyphenylglycine, protein alone, without MbtH-like protein"}, "[10]": {"settings": "co-purified with MbtH-like protein Tcp13"}, "[11]": {"settings": "co-purified with MbtH-like protein Tcp 13"}, "[12]": {"settings": "co-purified with MbtH-like protein Tcp 17"}, "[13]": {"settings": "co-purified with MbtH-like protein VMbtH"}}}
{"substance": "Teg7_M1_A: purified adenylation domain of Teg7 module M1 (SEQ ID NO: 27); uncultured soil bacterium", "values": [{"measurement": "adenylation activity (PPi release assay)", "setting": "[1]; co-purified with MbtH-like protein TMbtH", "value": "the same specificity"}, {"measurement": "adenylation activity (PPi release assay)", "setting": "[1]; [7]", "value": "no adenylation activity"}, {"measurement": "adenylation activity (absorption 360 nm, PPi release assay)", "setting": "[1]; [8]", "value": "No adenylation activity"}, {"measurement": "adenylation activity (PPi release assay)", "setting": "[2]; substrate D-phenylglycine, co-purified with Tcp13, or Tcp17 or VMbtH", "value": "no adenylation activity"}, {"measurement": "adenylation activity (PPi release assay)", "setting": "[3]; [7]", "value": "no adenylation activity"}, {"measurement": "adenylation activity (absorption 360 nm, PPi release assay)", "setting": "[3]; [8]", "value": "No adenylation activity"}, {"measurement": "adenylation activity (PPi release assay)", "setting": "[4]; [7]", "value": "no adenylation activity"}, {"measurement": "adenylation activity (absorption 360 nm, PPi release assay)", "setting": "[4]; [8]", "value": "No adenylation activity"}, {"measurement": "adenylation activity (PPi release assay)", "setting": "[5]; substrate D-hydroxyphenylglycine, co-purified with Tcp13, or Tcp17 or VMbtH", "value": "no adenylation activity"}, {"measurement": "adenylation activity (absorption 360 nm, PPi release assay)", "setting": "[5]; [9]", "value": "No adenylation activity"}, {"measurement": "adenylation activity (PPi release assay)", "setting": "[6]; substrate L-phenylglycine, co-purified with Tcp13, or Tcp17 or VMbtH", "value": "no adenylation activity"}]}
{"substance": "Veg8_M1_A: purified adenylation domain of Veg8 module M1 (SEQ ID NO: 6), maltose binding protein fusion, His-tag; uncultured soil bacterium", "values": [{"measurement": "Formed PPi", "setting": "[1]; substrate L-HPG 0.1 mM, co-purified with MbtH-like protein Tcp 13", "value": 0.56, "unit": "mM/min/mM enzyme"}, {"measurement": "Formed PPi", "setting": "[1]; substrate L-HPG 0.1 mM, co-purified with MbtH-like protein Tcp 17", "value": 0.70, "unit": "mM/min/mM enzyme"}, {"measurement": "Formed PPi", "setting": "[1]; substrate L-HPG 0.1 mM, co-purified with MbtH-like protein VMbtH", "value": 0.61, "unit": "mM/min/mM enzyme"}, {"measurement": "Formed PPi", "setting": "[1]; substrate L-HPG 1 mM, co-purified with MbtH-like protein Tcp 13", "value": 0.59, "unit": "mM/min/mM enzyme"}, {"measurement": "Formed PPi", "setting": "[1]; substrate L-HPG 1 mM, co-purified with MbtH-like protein Tcp 17", "value": 0.64, "unit": "mM/min/mM enzyme"}, {"measurement": "Formed PPi", "setting": "[1]; substrate L-HPG 1 mM, co-purified with MbtH-like protein VMbtH", "value": 0.61, "unit": "mM/min/mM enzyme"}, {"measurement": "adenylation activity (absorption 360 nm, PPi release assay)", "setting": "[1]; [10]", "value": "clear adenylation activity"}, {"measurement": "adenylation activity (absorption 360 nm, PPi release assay)", "setting": "[1]; [8]", "value": "very minor adenylation activity"}, {"measurement": "Formed PPi", "setting": "[2]; [11]", "value": 0.01, "unit": "mM/min/mM enzyme"}, {"measurement": "Formed PPi", "setting": "[2]; [12]", "value": 0.02, "unit": "mM/min/mM enzyme"}, {"measurement": "Formed PPi", "setting": "[2]; [13]", "value": 0.02, "unit": "mM/min/mM enzyme"}, {"measurement": "adenylation activity (absorption 360 nm, PPi release assay)", "setting": "[3]; [10]", "value": "no activity"}, {"measurement": "adenylation activity (absorption 360 nm, PPi release assay)", "setting": "[3]; [8]", "value": "no activity"}, {"measurement": "adenylation activity (absorption 360 nm, PPi release assay)", "setting": "[4]; [10]", "value": "no activity"}, {"measurement": "adenylation activity (absorption 360 nm, PPi release assay)", "setting": "[4]; [8]", "value": "no activity"}, {"measurement": "Formed PPi", "setting": "[5]; substrate D-HPG 0.1 mM, co-purified with MbtH-like protein Tcp 13", "value": 0.14, "unit": "mM/min/mM enzyme"}, {"measurement": "Formed PPi", "setting": "[5]; substrate D-HPG 0.1 mM, co-purified with MbtH-like protein Tcp 17", "value": 0.17, "unit": "mM/min/mM enzyme"}, {"measurement": "Formed PPi", "setting": "[5]; substrate D-HPG 0.1 mM, co-purified with MbtH-like protein VMbtH", "value": 0.18, "unit": "mM/min/mM enzyme"}, {"measurement": "Formed PPi", "setting": "[5]; substrate D-HPG 1 mM, co-purified with MbtH-like protein Tcp 13", "value": 0.92, "unit": "mM/min/mM enzyme"}, {"measurement": "Formed PPi", "setting": "[5]; substrate D-HPG 1 mM, co-purified with MbtH-like protein Tcp 17", "value": 1.03, "unit": "mM/min/mM enzyme"}, {"measurement": "Formed PPi", "setting": "[5]; substrate D-HPG 1 mM, co-purified with MbtH-like protein VMbtH", "value": 1.39, "unit": "mM/min/mM enzyme"}, {"measurement": "adenylation activity (absorption 360 nm, PPi release assay)", "setting": "[5]; substrate D-hydroxyphenylglycine, co-purified with MbtH-like protein Tcp13", "value": "clear adenylation activity"}, {"measurement": "adenylation activity (absorption 360 nm, PPi release assay)", "setting": "[5]; [9]", "value": "no activity"}, {"measurement": "Formed PPi", "setting": "[6]; [11]", "value": 0.17, "unit": "mM/min/mM enzyme"}, {"measurement": "Formed PPi", "setting": "[6]; [12]", "value": 0.14, "unit": "mM/min/mM enzyme"}, {"measurement": "Formed PPi", "setting": "[6]; [13]", "value": 0.20, "unit": "mM/min/mM enzyme"}]}
